Data as given in patent publication EP1974608A1, “Arylpyridazines as fungicides” (Bayer CropScience AG, priority 2007, dated 2008).
Where two headings read alike, the source gives them in different places.

What was measured:
[1] = logP determination by reversed-phase HPLC (C18), EEC Directive 79/831 Annex V.A8; type: physicochemical
Venturia inaequalis = assay: Venturia test (apple) / protective; type: in vivo; conditions: 100ppm Wirkstoff; protective spray on young apple plants; evaluated 10 days after inoculation
Text: Venturia - Test (Apfel) / protektiv
(§1) Zur Herstellung einer zweckmäßigen Wirkstoffzubereitung vermischt man 1 Gewichtsteil Wirkstoff mit den angegebenen Mengen Lösungsmittel und Emulgator und verdünnt das Konzentrat mit Wasser auf die gewünschte Konzentration.
Zur Prüfung auf protektive Wirksamkeit werden junge Pflanzen mit der Wirkstoff zubereitung in der angegebenen Aufwandmenge besprüht. Nach Antrocknen des Spritzbelages werden die Pflanzen mit einer wäßrigen Konidiensuspension des Apfelschorferregers Venturia inaequalis inokuliert und verbleiben dann 1 Tag bei ca. 20°C und 100% relativer Luftfeuchtigkeit in einer Inkubations-kabine.
Die Pflanzen werden dann im Gewächshaus bei ca, 21°C und einer relativen Luftfeuchtigkeit von ca. 90% aufgestellt.
10 Tage nach der Inokulation erfolgt die Auswertung. Dabei bedeutet 0% ein Wirkungsgrad, der demjenigen der Kontrolle entspricht, während ein Wirkungsgrad von 100% bedeutet, daß kein Befall beobachtet wird.

Alternaria solani = assay: Alternaria test (tomato) / protective; type: in vivo; conditions: 500ppm Wirkstoff; protective spray on young tomato plants; evaluated 7 days after inoculation
Text: Alternaria-Test (Tomate) / protektiv
as §1
Zur Prüfung auf protektive Wirksamkeit bespritzt man junge Tomatenpflanzen mit der Wirkstoffzubereitung in der angegebenen Aufwandmenge. 1 Tag nach der Behandlung werden die Pflanzen mit einer Sporensuspension von Alternaria solani inokuliert und stehen dann 24h bei 100% rel. Feuchte und 20°C. Anschließend stehen die Pflanzen bei 96% rel. Luftfeuchtigkeit und einer Temperatur von 20°C.
7 Tage nach der Inokulation erfolgt die Auswertung. Dabei bedeutet 0 % ein Wirkungsgrad, der demjenigen der Kontrolle entspricht, während ein Wirkungsgrad von 100 % bedeutet, dass kein Befall beobachtet wird.

[2] = HPLC method of the footnote to Tabelle 1
[3] = reversed-phase c18 hplc, HPLC, 40°C, 0.1% aqueous formic acid / acetonitrile gradient 10% to 95%, read-out: log p

| SMILES | logP [1, 2] | chromatographic logP [1, 3] | further results |
| --- | --- | --- | --- |
| Cc1nc(-c2c(-c3ccc(Cl)cc3)c(C)n[nH]c2=O)cs1 [5-(4-Chlorphenyl)-4-(2-methyl-1,3-thiazol-4-yl)-6-methylpyridazin-3(2H)-on] | 2.26 |  |  |
| Cc1n[nH]c(=O)c(-c2cccs2)c1-c1ccc(Cl)cc1 [5-(4-Chlorphenyl)-4-(2-thienyl)-6-methylpyridazin-3(2H)-on] | 2.71 |  |  |
| Cc1nnc(Cl)c(-c2nc(Cl)c(Cl)s2)c1-c1ccc(Cl)cc1 [Beispiel 28] |  | 4.32 |  |
| CC(Br)C(=O)c1ccc(Cl)cc1 (stereo not shown) [2-Brom-1-(4-chlorphenyl)propan-1-on] |  |  | chromatographic logP ([1]; reversed-phase c18 hplc, HPLC method of the footnote to Tabelle 1): 3.39 |
| Cc1nnc(Cl)c(-c2cccn2C)c1-c1ccc(Cl)cc1 [Beispiel 27] |  | 3.24 |  |
| Cc1n[nH]c(=O)c(-c2cccn2C)c1-c1ccc(Cl)cc1 [5-(4-Chlorphanyl)-4-(1-Methyl-1H-pyrrol-2-yl)-6-methylpyridazin-3(2H)-on] | 2.45 |  |  |
| CC1(O)OC(=O)C(c2cccs2)=C1c1ccc(Cl)cc1 (stereo not shown) [4-(4-Chlorphenyl)-5-hydroxy-5-methyl-3-(2-thienyl)furan-2(5H)-on] | 3.05 |  |  |
| Cc1n[nH]c(=O)c(-c2nc(Cl)c(Cl)s2)c1-c1ccc(Cl)cc1 [5-(4-Chlorphenyl)-4-(4,5-Dichlor-1,3-thiazol-2-yl)-6-methylpyridazin-3(2H)-on] | 3.94 |  |  |
| Cc1nnc(Cl)c(-c2cccs2)c1-c1ccc(Cl)cc1 [Beispiel 29, 3-Chlor-5-(4-chlorphenyl)-4-(2-thienyl)-6-methylpyridazin] |  | 3.41 | Wirkungsgrad (Venturia inaequalis): ≥ 70%; chromatographic logP ([1]; c18 reversed-phase hplc, HPLC method of the footnote to Tabelle 1): 3.41; Wirkungsgrad (Alternaria solani): ≥ 70% |
| Cc1nc(-c2c(Cl)nnc(C)c2-c2ccc(Cl)cc2)cs1 [Beispiel 26] |  | 2.82 |  |
